The nature of series [1]: PAMPA-BBB test. The class given is in vitro ADME. The following applies: for Papp at 2.5 h / Pe exp / CNS prediction: PAMPA-BBB; for Papp at 2.5 h / Pe exp: PBS pH 7.4/DMSO 95/5, 2.5 h, room temperature; for Papp at 2.5 h: read-out: Pe exp.
Method: CNS penetration: in vitro PAMPA-BBB test. Prediction of the brain penetration was evaluated using a parallel artificial membrane permeability assay (PAMPA).1
Nine quality control compounds (mentioned below) of know BBB permeability
were included in each experiment to validate the analysis set.2 Commercial drugs
dissolved in 250 µL of DMSO (Sigma-Aldrich). 25 µL of these compound stock
solutions were taken and 225 µL of DMSO and 4750 µL of PBS pH 7.4 buffer
were added to reach 5% of DMSO concentration in the experiment and a final
compound concentration in the range of 0.2 to 1.1 mM. Compounds to be
determined their ability to pass the brain barrier (0.5-1 mg) were dissolved in 250
µL of DMSO and 4750 µL of PBS pH 7.4 was carefully added to afford a final
compound concentration in the range of 0.2 to 1.1 mM. Solutions were filtered
using filter PDVF membrane units (diameter 30 mm, pore size 0.45 μm, Symta).
10 µL of each solution were taken and diluted 10-fold with PBS/DMSO (95/5) for
HPLC-MS analysis. The acceptor 96-well plate (Multiscreen®, catalog no.
MAMCS9610, Millipore) was filled with 180 µL of PBS/DMSO (95/5). The donor
96-well plate (Multiscreen® IP Sterile Plate PDVF membrane, pore size is 0.45
M, catalog no. MAIPS4510, Millipore) was coated with 4 µL 20 mg·mL-1 of
for 5 min and then 180 µL of each compound solution was added. Then the donor
plate was put on the acceptor plate and kept for 2.5 h at room temperature. After
incubation, samples were collected from the acceptor plate and diluted 10-fold
with PBS/DMSO (95/5) for HPLC-MS analysis and compared to HPLC-MS of
initial solutions. Absorbance peak of each compound was determined by MS
detection and was used to calculate the concentration of compounds and
Every sample was analysed in two independent
runs. HPLC-MS was performed using a HPLC-MS equipment from Thermo
Fisher coupled to a Finnigan TM LXQ TM detector. Each compound was
analysed using a Sunfire column C18, 3.5 μm (50 mm x 4.6 mm) and acetonitrile
and Milli-Q water (with 0.1% formic acid) as mobile phase. The standard gradient
Series [2] addresses CK1δ (Homo sapiens, UniProt P48730). The experiment in a line: CK1δ inhibition enzymatic assay (Kinase-Glo). It counts as biochemical. As to the method: CK1δ inhibition enzymatic assay. The “Kinase-Glo” Kit from Promega was used to screen compounds for activity against CK1δ Kinase-Glo assays were performed in assay buffer using black 96-well plates. In a typical assay, 10 μl of test compound (dissolved in DMSO at 1 mM concentration and diluted in advance in assay buffer to the desired concentration) 10 μl (16 ng) of enzyme were added to each well followed by 20 µl of assay buffer containing 0,1 % casein as substrate […]
exceed 1%. After 60-min incubation at 30°C the enzymatic reaction was stopped […]
with 40 μl of Kinase-Glo reagent. Glow-type luminescence was recorded after 10 min using a FLUOstar Optima (BMG Labtechnologies GmbH, Offenburg, Germany) multimode reader. The activity is proportional to the difference of the total and consumed ATP. The inhibitory activities were calculated on the basis of maximal activities measured in the absence of inhibitor. The IC50 was defined as the concentration of each compound that reduces a 50% the enzymatic activity with respect to that without inhibitors. […]
Ibérica SAU). Kinase-Glo Luminescent Kinase Assay was obtained from Promega (Promega Biotech Ibérica, SL). ATP and all other reagents were from Sigma Aldrich (St. Louis, MO). Assay buffer contained 50 mM HEPES (pH 7.5), 1 mM EDTA, 1 mM EGTA, and 15 mM magnesium acetate. […]
For orientation: Kinase-Glo reads ATP consumption through a luciferase reaction.

Series [3] addresses BACE1 (Homo sapiens, UniProt P56817). The experiment in a line: BACE1 enzymatic assay (FRET). It counts as biochemical. As to conditions: for inhibition at 10 µM: read-out: BACE1 enzyme inhibition at 10 μM.
Method: BACE1 enzymatic assay. BACE1 in vitro assays were carried out using FRET.
μM) carrying the Swedish mutation and containing a rhodamine as a fluorescence donor and a quencher acceptor at each end was used. The intact substrate is weakly fluorescent and becomes highly fluorescent upon enzymatic cleavage.
The assays were conducted in 50 mM sodium acetate buffer, pH 4.5, in a final
enzyme concentration (1 U/mL). Inhibitor screening at 10 μM. The mixture was
sodium acetate. Fluorescence was measured with a FLUOstar Optima (BMG
Series [4] addresses T1, Human recombinant GSK3β (Homo sapiens, UniProt P49841).
T1 construct: purchased Millipore (Millipore Ibérica SAU)
The experiment in a line: GSK3β inhibition enzymatic assay (Kinase-Glo). The class given is biochemical. As for the experimental part: GSK3β inhibition enzymatic assay. Human recombinant GSK3β and the pre-phosphorylated polypeptide substrate were purchased from Millipore (Millipore Ibérica SAU). Kinase-Glo Luminescent Kinase Assay was obtained from Promega (Promega Biotech Ibérica, SL). ATP and all other reagents were from Sigma Aldrich (St. Louis, MO). Assay buffer contained 50 mM HEPES (pH 7.5), 1 mM EDTA, 1 mM EGTA, and 15 mM magnesium acetate.
Kinase-Glo assays were performed in assay buffer using black 96-well plates. In a typical assay, 10 μL (10 μM) of test compound (dissolved in DMSO) at 1 mM concentration and diluted in advance in assay buffer to the desired concentration) and 10 μL (20 ng) of enzyme were added to each well followed by 20 μL of assay buffer containing 25 μM substrate and 1 μM ATP. The final DMSO concentration […]
After 30 min incubation at 30 °C, the enzymatic reaction was stopped with 40 μL of Kinase-Glo reagent. Glow-type luminescence was recorded after 10 min using a FLUOstar Optima (BMG
Labtechnologies GmbH, Offenburg, Germany) multimode reader. The activity is proportional to the difference of the total and consumed ATP. The inhibitory activities were calculated based on maximal activities measured in the absence of inhibitor. The IC50 was defined as the concentration of each compound that reduces a 50 % the enzymatic activity with respect to that without inhibitors. […]

On the set-up of series [5]: method as in earlier work. As to conditions: PAMPA-BBB reported permeability ref 2; cited from earlier work.
The target of series [6] is T2, LRRK2 (Homo sapiens, UniProt Q5S007).
T2 construct: purchased ThermoFisher (assay run by the company)
T2 sequence (Q5S007 whole entry): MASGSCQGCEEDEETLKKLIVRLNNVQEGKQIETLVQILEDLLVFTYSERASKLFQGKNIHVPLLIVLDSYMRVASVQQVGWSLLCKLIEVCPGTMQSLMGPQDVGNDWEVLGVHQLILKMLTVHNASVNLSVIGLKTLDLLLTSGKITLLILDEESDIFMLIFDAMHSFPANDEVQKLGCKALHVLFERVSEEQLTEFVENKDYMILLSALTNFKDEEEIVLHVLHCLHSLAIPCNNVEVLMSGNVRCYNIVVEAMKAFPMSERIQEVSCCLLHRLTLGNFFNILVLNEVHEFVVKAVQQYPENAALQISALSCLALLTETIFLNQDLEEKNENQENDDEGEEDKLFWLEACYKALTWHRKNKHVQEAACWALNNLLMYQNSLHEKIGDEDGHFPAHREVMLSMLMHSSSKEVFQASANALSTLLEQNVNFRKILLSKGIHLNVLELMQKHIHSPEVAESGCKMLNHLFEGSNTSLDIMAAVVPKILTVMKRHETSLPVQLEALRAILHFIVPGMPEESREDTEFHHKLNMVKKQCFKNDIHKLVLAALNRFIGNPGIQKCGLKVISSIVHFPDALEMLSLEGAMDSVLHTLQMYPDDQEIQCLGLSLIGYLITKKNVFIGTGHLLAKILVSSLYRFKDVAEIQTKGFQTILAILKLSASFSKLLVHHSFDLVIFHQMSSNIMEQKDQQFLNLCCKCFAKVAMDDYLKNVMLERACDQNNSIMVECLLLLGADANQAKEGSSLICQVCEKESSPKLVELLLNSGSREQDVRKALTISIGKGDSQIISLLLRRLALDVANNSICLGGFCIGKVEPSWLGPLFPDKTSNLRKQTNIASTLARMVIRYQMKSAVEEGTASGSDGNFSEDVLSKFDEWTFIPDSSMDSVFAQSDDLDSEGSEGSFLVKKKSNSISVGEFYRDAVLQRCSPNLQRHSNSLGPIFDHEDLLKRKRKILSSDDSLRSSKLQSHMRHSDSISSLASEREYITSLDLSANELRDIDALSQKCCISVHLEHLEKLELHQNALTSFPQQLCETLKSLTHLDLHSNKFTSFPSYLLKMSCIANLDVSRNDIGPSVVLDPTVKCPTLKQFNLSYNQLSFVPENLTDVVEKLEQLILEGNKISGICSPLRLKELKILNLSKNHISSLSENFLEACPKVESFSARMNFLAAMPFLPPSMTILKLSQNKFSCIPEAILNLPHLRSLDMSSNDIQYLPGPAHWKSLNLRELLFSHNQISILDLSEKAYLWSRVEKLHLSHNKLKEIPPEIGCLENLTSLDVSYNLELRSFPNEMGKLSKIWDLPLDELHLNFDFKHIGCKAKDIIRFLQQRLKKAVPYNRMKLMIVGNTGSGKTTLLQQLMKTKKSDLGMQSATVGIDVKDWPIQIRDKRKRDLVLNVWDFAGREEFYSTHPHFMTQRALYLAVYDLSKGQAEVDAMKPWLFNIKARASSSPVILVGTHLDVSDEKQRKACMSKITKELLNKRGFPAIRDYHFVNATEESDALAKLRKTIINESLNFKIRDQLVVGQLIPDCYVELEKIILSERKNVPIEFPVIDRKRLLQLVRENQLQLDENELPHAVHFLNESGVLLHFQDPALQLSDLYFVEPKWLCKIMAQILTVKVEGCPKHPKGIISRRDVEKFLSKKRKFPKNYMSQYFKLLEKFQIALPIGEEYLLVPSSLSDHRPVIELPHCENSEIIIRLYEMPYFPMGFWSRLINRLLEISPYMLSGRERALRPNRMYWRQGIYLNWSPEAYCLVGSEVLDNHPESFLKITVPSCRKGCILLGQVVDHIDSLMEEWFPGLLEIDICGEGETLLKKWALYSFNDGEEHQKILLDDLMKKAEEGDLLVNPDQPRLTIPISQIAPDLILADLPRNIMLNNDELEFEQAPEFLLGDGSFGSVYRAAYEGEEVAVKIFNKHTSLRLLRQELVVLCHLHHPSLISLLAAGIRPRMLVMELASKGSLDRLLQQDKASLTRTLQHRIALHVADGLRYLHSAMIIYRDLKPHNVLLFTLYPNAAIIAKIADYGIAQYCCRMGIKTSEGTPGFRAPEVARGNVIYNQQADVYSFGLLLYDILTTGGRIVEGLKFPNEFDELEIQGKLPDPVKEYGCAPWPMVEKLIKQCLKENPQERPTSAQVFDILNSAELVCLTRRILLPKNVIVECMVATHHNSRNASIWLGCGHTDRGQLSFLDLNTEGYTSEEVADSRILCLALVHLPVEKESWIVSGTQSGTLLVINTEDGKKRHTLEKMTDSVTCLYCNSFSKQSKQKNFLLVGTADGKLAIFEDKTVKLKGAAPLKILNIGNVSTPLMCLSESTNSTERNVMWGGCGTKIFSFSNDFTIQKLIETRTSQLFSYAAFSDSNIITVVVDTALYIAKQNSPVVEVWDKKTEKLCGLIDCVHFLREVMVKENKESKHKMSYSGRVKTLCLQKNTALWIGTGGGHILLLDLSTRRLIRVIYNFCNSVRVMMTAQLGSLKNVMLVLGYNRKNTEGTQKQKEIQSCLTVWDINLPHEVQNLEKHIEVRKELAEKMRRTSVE
The experiment in a line: LRRK2 inhibition enzymatic assay (Adapta, ThermoFisher). The class given is biochemical. As to conditions: for inhibition at 10 µM: read-out: LRRK2 enzyme inhibition at 10 μM.

The IC50 is the point on the concentration scale where inhibition reaches its midpoint. As usually defined, the inhibition is the change of the read-out against control, counted positive when it falls. As usually defined, the melting point is the temperature, or range, at which the solid turns liquid.

Chain of CK1δ (P48730 whole entry): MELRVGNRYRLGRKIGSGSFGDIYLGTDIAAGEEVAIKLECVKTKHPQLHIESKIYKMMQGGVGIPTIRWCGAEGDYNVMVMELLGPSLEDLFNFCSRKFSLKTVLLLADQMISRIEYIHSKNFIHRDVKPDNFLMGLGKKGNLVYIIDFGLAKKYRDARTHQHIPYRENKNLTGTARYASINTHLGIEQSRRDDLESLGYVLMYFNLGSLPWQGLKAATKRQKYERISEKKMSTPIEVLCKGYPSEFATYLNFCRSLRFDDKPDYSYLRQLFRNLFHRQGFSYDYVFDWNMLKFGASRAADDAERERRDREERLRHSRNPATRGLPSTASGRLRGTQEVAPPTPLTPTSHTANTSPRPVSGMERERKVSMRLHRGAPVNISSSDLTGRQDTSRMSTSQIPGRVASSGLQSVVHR
Chain of BACE1 (P56817 46-501): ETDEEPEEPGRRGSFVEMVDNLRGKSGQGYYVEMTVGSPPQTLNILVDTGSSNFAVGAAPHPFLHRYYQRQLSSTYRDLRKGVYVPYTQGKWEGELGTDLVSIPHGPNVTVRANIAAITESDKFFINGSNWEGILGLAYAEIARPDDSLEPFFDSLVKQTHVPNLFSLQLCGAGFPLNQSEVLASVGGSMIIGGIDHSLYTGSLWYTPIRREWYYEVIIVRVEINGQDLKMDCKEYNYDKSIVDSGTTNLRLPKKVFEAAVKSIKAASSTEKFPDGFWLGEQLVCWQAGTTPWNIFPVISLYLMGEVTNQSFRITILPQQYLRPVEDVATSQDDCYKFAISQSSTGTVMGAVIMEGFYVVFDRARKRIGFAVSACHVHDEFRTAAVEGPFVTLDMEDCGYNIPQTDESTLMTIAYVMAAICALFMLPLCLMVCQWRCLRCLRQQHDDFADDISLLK
T1 sequence (P49841 whole entry): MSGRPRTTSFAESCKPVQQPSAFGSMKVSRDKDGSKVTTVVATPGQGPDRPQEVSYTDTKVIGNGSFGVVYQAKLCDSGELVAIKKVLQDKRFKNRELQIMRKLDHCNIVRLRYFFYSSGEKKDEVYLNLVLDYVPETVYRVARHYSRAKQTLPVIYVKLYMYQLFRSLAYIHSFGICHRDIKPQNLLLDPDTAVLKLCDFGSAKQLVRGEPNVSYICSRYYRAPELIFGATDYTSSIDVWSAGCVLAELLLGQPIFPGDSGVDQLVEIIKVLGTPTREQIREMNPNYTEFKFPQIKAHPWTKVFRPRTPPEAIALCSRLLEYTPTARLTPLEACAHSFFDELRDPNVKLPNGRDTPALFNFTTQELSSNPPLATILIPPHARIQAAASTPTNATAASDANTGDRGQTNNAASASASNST

Consider `Cn1c(=O)c2c(ncn2C)n(C)c1=O` [Caffeine, caffeine, reference compound], for which the Papp at 2.5 h in series [1] was 1.45 ± 0.26 ×10⁻⁶ cm/s.
Still for that read-out and setting: the result for `CNCCCN1c2ccccc2CCc2ccccc21` [Desipramine, desipramine, reference compound] reads 7.44 ± 0.9 ×10⁻⁶ cm/s.
For `CCn1cc(C(=O)O)c(=O)c2cc(F)c(N3CCNCC3)nc21` [Enoxacine, enoxacine, reference compound], the Pe exp in series [1] is 1.41 ± 0.05 10-6 cm s-1.
As for `O=C(Cc1ccccc1)Nc1nc2ccccc2s1` [MBC-858, reference compound], the results for the IC50 in series [2] and in series [3] were 0.33 ± 0.03 µM and above 20 µM, respectively.
For the compound `CCn1sc(=O)n(Cc2ccccc2)c1=O` [MBC-2138, reference compound], the IC50 is above 20 µM in series [3] and 0.53 ± 0.03 µM in series [4].
Take `CN1C(C(=O)Nc2ccccn2)=C(O)c2ccccc2S1(=O)=O` [Piroxicam, piroxicam, reference compound]: the “Pe Bibl.” value in series [5] is reported as 2.5 10-6 cm s-1. Also, the Papp at 2.5 h in series [1] stood at 2.92 ± 0.37 ×10⁻⁶ cm/s.
Turning to `CN(C)CCCN1c2ccccc2Sc2ccccc21` [Promazine, promazine, reference compound], the “Pe Bibl.” value in series [5] was 8.8 10-6 cm s-1. Besides, the Papp at 2.5 h in series [1] turned out to be 5.18 ± 0.43 ×10⁻⁶ cm/s.
In the case of `O=C(Nc1nc2ccccc2s1)c1ccc(CSCCCSCc2ccc(C(=O)Nc3nc4ccccc4s3)cc2)cc1` [compound 3], the figures for the IC50 in series [3] and in series [6] were 7.14 µM and 1.88 µM, respectively.
On to `O=C(Cc1ccc(OCc2cn(Cc3ccc(C(=O)Nc4nc5ccccc5s4)cc3)nn2)cc1)Nc1nc2ccc(C(F)(F)F)cc2s1` [compound 28], for which the IC50 in series [2] is 0.4 ± 0.06 µM; in series [3] it was 7.21 ± 0.35 µM; in series [6] it was 0.71 ± 0.26 µM. Further, the CNS prediction result in series [1] is reported as “CNS- (CNS‐ (red) for compounds with Pe <1.88×10^−6 cm s^−1)”. For the same compound, in series [1], the Papp at 2.5 h was 0.65 ± 0.18 ×10⁻⁶ cm/s.
As for `COc1ccc2nc(NC(=O)Cc3ccc(OCc4cn(CCc5ccc(C(=O)Nc6nc7ccccc7s6)cc5)nn4)cc3)sc2c1` [compound 29], the values for the IC50 in series [2], in series [3] and in series [6] were 12.6 ± 0.7 µM, 11 ± 1.36 µM and 0.44 ± 0.1 µM, respectively. Also, the CNS prediction entry in series [1] was “CNS- (CNS‐ (red) for compounds with Pe <1.88×10^−6 cm s^−1)”. For the same compound, the Pe exp in series [1] is given as 0 10-6 cm s-1.
Take `O=C(Cc1ccc(OCc2cn(CCc3ccc(C(=O)Nc4nc5ccccc5s4)cc3)nn2)cc1)Nc1nc2ccccc2s1` [compound 30]: the melting point was in the range of 239 to 240 °C. In series [2] (read-out: CK1δ enzyme inhibition at 10 μM), the inhibition at 10 µM was 30%. Besides, in series [1], the CNS prediction result is on record as “CNS+ (CNS+ (green) for compounds with Pe >3.20×10^−6 cm s^−1)” and the Papp at 2.5 h stood at 3.58 ± 0.12 ×10⁻⁶ cm/s. The compound also gave an IC50 in series [3] of 8.57 ± 0.45 µM. The same compound came in with an IC50 in series [6] of 3.19 ± 1.01 µM.
Consider `CCOC(=O)c1sc(NC(=O)Cc2ccc(OCc3cn(Cc4ccc(CC(=O)Nc5nc6ccccc6s5)cc4)nn3)cc2)nc1C` [compound 31], for which the IC50 in series [2] came to 5.4 ± 0.91 µM; in series [3], 6.76 ± 0.61 µM. Besides, the “Solubility in the conditions of the PAMPA experiment” value in series [1] (PBS pH 7.4 with 5% DMSO) is “insoluble”. Also, the inhibition at 10 µM in series [4] (read-out: GSK3β enzyme inhibition at 10 μM) stood at 26%.
With `O=C1Nc2ccccc2/C1=N/c1ccc(OCc2cn(Cc3ccc(C(=O)Nc4nc5ccccc5s4)cc3)nn2)cc1` [compound 32], the inhibition at 10 µM was below 20% in series [3] and 54% in series [6].
Taken in the same sequence, the figures for `O=C(Nc1nc2ccccc2s1)c1ccc(CCn2cc(COc3ccc(C(=O)Nc4nc5ccccc5s4)cc3)nn2)cc1` [compound 33] were below 20% and 98%.

Values taken from PMC8457121, “From Kinase Inhibitors to Multitarget Ligands as Powerful Drug Leads for Alzheimer's Disease using Protein‐Templated Synthesis” (Angewandte Chemie (International Ed. in English), 2021).
